In US12331029B2, “Orexin 1 receptor antagonists” (NXERA PHARMA UK LIMITED, priority 2018, dated 2025):

Legend:
[1] = target: T1, Human OX2 receptor (Homo sapiens, UniProt O43614); test: [3H]-radioligand binding assay, human OX2 receptor membranes
T1 sequence (O43614 1-444): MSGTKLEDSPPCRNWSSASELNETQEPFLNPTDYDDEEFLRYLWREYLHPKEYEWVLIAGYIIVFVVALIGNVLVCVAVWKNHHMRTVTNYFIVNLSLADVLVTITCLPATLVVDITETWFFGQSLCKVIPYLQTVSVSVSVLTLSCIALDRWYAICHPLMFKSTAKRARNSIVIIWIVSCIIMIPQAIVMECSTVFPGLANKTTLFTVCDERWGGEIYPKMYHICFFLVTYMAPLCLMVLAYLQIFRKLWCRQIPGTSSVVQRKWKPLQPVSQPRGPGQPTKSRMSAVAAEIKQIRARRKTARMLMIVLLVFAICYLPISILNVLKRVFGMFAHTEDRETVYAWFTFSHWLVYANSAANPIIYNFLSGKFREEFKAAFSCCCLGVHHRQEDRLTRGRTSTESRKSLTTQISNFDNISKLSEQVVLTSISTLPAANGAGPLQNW
Protocol: (§2) Human OX1 or OX2 receptor were cloned into Invitrogen's (ThermoFisher Scientific, UK) Bac-to-Bac Baculovirus Expression System. P0 baculovirus was generated by transfecting SF9 cells with bacmid DNA using Cellfectin® II transfection reagent (ThermoFisher Scientific, UK, Catalog number 10362-100). Following P0 generation P1 virus was then generated ready for large scale infection and membrane preparation. SF21 cells were grown in expression medium ESF921 (Expression Systems, USA, catalog number 96-001-01) supplemented with 10% heat-inactivated FBS and 1% Pen/Strep and were infected at a cell density of 2.5×10^6 cells/mL and a multiplicity of infection of 1.0 for both human OX1R and OX2R. Incubation was carried out at over 48 h in a shaking incubator set at 27° C. The cell culture was then centrifuged at 2,500 rcf for 10 min at 4° C. The pellets were resuspended in cold PBS supplemented with Roche's Complete EDTA-free protease inhibitor cocktail tablets (Roche Applied Sciences, catalog number 05056489001), 1 mM PMSF and 1 mM EDTA. The resuspended cell paste was then centrifuged at 3,273 rcf for 12 min at 4° C. The supernatant was discarded and the pellet frozen at −80° C. The cell pellet from a 4 L culture was resuspended in buffer containing 50 mM HEPES pH 7.5, 150 mM NaCl, 8 Roche EDTA-Free protease inhibitor cocktail tablets and 1 mM PMSF. The suspension was left stirring at rt for 1 h and then homogenised for 90 s at 9,500 rpm using a VDI 25 (VWR, USA) homogeniser. The cells were then lysed using a Microfluidiser processor M-110L Pneumatic (Microfluidics, USA) at 60 PSI and membranes collected by ultracentrifugation at 204.7 k×g for 1 h. The supernatant was discarded and the pellet was resuspended and homogenised in 90 s at 9,500 rpm in 50 mL (25 mL for each 2 L culture) of buffer containing 50 mM Hepes pH 7.5, 150 mM NaCl, 3 Roche EDTA-free protease inhibitor cocktail tablets and 1 mM PMSF. The resulting membranes were then stored at −80° C.
(§3) [^3H]-radioligand binding assay. After thawing, membrane homogenates were re-suspended in the binding buffer (8.5 mM HEPES, pH 7.4, 1.3 mM CaCl2, 1.2 mM MgSO4, 118 mM NaCl, 4.7 mM KCl, 4 mM NaHCO3, 1.2 mM KH2PO4, 11 mM glucose) to a final assay concentration of 6.4 μg (OX1) or 1.4 μg (OX2) protein per well. Saturation isotherms were determined by the addition of various concentrations (0-30 nM) of [^3H]-4-(2,6-difluoro-4-methoxybenzyl)-2-(5,6-dimethoxypyridin-3-yl)-2H-1,2,4-benzothiadiazin-3(4H)-one 1,1-dioxide (Christopher et al, MedChemComm., 2015, 6, 947-955) in a total reaction volume of 250 μL for 90 min at rt. At the end of the incubation, membranes were filtered onto a 96-well GF/B filter pre-incubated with 0.5% polyethylenimine, with a Tomtec cell harvester and washed 5 times with 0.5 mL distilled water. Non-specific binding (NSB) was measured in the presence of 3.33 μM [4-(5-chloro-1,3-benzoxazol-2-yl)-7-methyl-1,4-diazepan-1-yl][5-methyl-2-(2H-1,2,3-triazol-2-yl)phenyl]methanone (Wertz et al, Angew. Chem. Int. Ed., 2011, 50, 11511-11515). Radioactivity on the filter was counted (1 min) on a Microbeta radiometric plate counter (Perkin Elmer) after addition of 50 μL of scintillation fluid (LabLogic: Part #SG-BXX-14). […] IC50 values were derived from the inhibition curve and the equilibrium dissociation constant (Ki) values were calculated using the Cheng-Prusoff equation.

[2] = target: T1, Human OX2 receptor; test: IPone accumulation assay, CHO cells expressing human OX2 receptor; assay type: cell-based; settings: antagonism of orexin A (EC80) induced inositol phosphate turnover, read-out: fpKb average OX2
Protocol: (§1) Stable cell lines for the human OX1R and OX2R receptors were generated through the transfection of CHO cells using the transfection reagent Genejuice (Novagen number 70967) and cDNA coding for either the human OX1R or OX2R. Cells were cultured in Sigma Nutrient Mixture F-12 Ham media (catalog number N6658) supplemented with 10% heat-inactivated FBS. Forty-eight hours after transfection, cells were harvested and placed under geneticin selection by culturing in Sigma Nutrient Mixture F-12 Ham media supplemented with 10% heat-inactivated FBS and geneticin (ThermoFisher Catalog number: 10131035). Selection of the final stable clone for each receptor was made on the basis of receptor expression, assay signal to noise and robustness though increasing passage. Selected clones for the human OX1R and OX2R were then frozen down into liquid nitrogen using Cell Freezing Medium-DMSO (Sigma-Aldrich catalog number: C6164).
IPone accumulation assay. A CHO cell line stably expressing either human OX1 or OX2 receptor was used with the IPone HTRF assay kit (CisBio: Part #62IPAPEJ) to measure receptor activation. The assay was optimised to measure the ability (potency; fpKb) of antagonists to reduce agonist (orexin A)-induced inositol phosphate turnover. Briefly, cells were plated onto half area 96-well white walled plates at a density of 12,500 cells/well. Sixteen hours post-plating cell growth media was replaced with antagonist concentration-response curve diluted in stimulation buffer (supplied with the kit). […] After 30 min stimulation in a humidified incubator (37° C.) the assay was terminated by the addition of detection mixture as per manufacturer's instructions. The concentration of compound which reduced orexin-A stimulated turnover of inositol phosphates by 50% (IC50) was calculated by fitting to a four parameter sigmoidal dose response curve. The IC50 values were converted to fpKB values using the orexin A pEC50 value estimated on each plate as well as the challenge concentration interpolated from the orexin A control curve.

[3] = target: T2, Human OX1 receptor (Homo sapiens, UniProt O43613); test: [3H]-radioligand binding assay, human OX1 receptor membranes
T2 sequence (O43613 1-425): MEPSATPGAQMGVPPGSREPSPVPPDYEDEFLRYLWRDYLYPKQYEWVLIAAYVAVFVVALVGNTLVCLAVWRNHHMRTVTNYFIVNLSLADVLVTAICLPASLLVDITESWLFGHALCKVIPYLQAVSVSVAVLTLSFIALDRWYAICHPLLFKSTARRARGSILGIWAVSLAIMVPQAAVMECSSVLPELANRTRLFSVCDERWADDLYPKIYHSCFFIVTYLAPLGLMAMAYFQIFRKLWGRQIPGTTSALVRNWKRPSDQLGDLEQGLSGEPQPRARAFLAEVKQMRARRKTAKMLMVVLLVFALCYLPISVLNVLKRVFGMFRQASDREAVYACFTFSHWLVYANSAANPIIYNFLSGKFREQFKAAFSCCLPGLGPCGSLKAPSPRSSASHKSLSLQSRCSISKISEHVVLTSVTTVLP
Protocol: as §2, §3

[4] = target: T2, Human OX1 receptor; test: IPone accumulation assay, CHO cells expressing human OX1 receptor; assay type: cell-based; settings: antagonism of orexin A (EC80) induced inositol phosphate turnover, read-out: fpKb average OX1 (converted)
Protocol: as §1
IPone accumulation assay. A CHO cell line stably expressing either human OX1 or OX2 receptor was used with the IPone HTRF assay kit (CisBio: Part #62IPAPEJ) to measure receptor activation. The assay was optimised to measure the ability (potency; fpKb) of antagonists to reduce agonist (orexin A)-induced inositol phosphate turnover. Briefly, cells were plated onto half area 96-well white walled plates at a density of 12,500 cells/well. Sixteen hours post-plating cell growth media was replaced with antagonist concentration-response curve diluted in stimulation buffer (supplied with the kit). Cells were incubated in a humidified incubator (37° C.) for 30 min before an EC80 challenge concentration (˜20 nM (OX1) and 40 nM (OX2)) of orexin A (Tocris catalogue number 1455). After 30 min stimulation in a humidified incubator (37° C.) the assay was terminated by the addition of detection mixture as per manufacturer's instructions. The concentration of compound which reduced orexin-A stimulated turnover of inositol phosphates by 50% (IC50) was calculated by fitting to a four parameter sigmoidal dose response curve. The IC50 values were converted to fpKB values using the orexin A pEC50 value estimated on each plate as well as the challenge concentration interpolated from the orexin A control curve.

| Structure (SMILES) | Ki [1] [nM] | Kb [2] [nM] | Ki [3] [nM] | Kb [4] [nM] |
| --- | --- | --- | --- | --- |
| COc1ccc(F)c(-n2nccn2)c1C(=O)N[C@H]1CCC[C@@H]1COc1ccc(F)cc1 [Example 16, 3-fluoro-N-[(1S,2S)-2-[(4-fluorophenoxy)methyl]cyclopentyl]-6-methoxy-2-(triazol-2-yl)benzamide] | 1580 | > 631 | 12.6 | 20 |
| Cc1ccc(-n2nccn2)c(C(=O)N[C@H]2CCC[C@@H]2COc2ccc(F)cc2)n1 [Example 22, N-[(1S,2S)-2-[(4-fluorophenoxy)methyl]cyclopentyl]-6-methyl-3-(triazol-2-yl)pyridine-2-carboxamide] | > 3160 | > 1260 | 3.98 | 25.1 |
| COc1ccc(-n2nccn2)c(C(=O)N[C@H]2CCC[C@@H]2COc2ccc(F)cc2)n1 [Example 20, N-[(1S,2S)-2-[(4-fluorophenoxy)methyl]cyclopentyl]-6-methoxy-3-(triazol-2-yl)pyridine-2-carboxamide] | > 5010 | > 1260 | 7.94 | 100 |
| COc1cccc(-n2nccn2)c1C(=O)N[C@H]1CCC[C@@H]1COc1ccc(Cl)cc1 [Example 6, N-[(1S,2S)-2-[(4-chlorophenoxy)methyl]cyclopentyl]-2-methoxy-6-(triazol-2-yl)benzamide] | 200 | > 794 | 2.51 | 6.31 |
| Cc1ccc(-n2nccn2)c(C(=O)N[C@H]2CCC[C@@H]2COc2ccc(Cl)cc2)n1 [Example 23, N-[(1S,2S)-2-[(4-chlorophenoxy)methyl]cyclopentyl]-6-methyl-3-(triazol-2-yl)pyridine-2-carboxamide] | > 3980 | > 1260 | 1.26 | 39.8 |
| COc1nccc(-n2nccn2)c1C(=O)N[C@H]1CCC[C@@H]1COc1ccc(F)cc1 [Example 29, N-[(1S,2S)-2-[(4-fluorophenoxy)methyl]cyclopentyl]-2-methoxy-4-(triazol-2-yl)pyridine-3-carboxamide] | 794 | > 631 | 6.31 | 39.8 |
| [2H]C([2H])(Oc1ccc(F)cc1)[C@H]1CCC[C@@H]1NC(=O)c1c(OC)cccc1-n1nccn1 [Example 7, N-[(1S,2S)-2-[dideuterio-(4-fluorophenoxy)methyl]cyclopentyl]-2-methoxy-6-(triazol-2-yl)benzamide] | 158 | > 794 | 2.51 | 0.794 |
| O=C(N[C@H]1CCC[C@@H]1COc1ccc(F)cc1)c1ccccc1-n1nccn1 [Example 1, N-[(1S,2S)-2-[(4-fluorophenoxy)methyl]cyclopentyl]-2-(triazol-2-yl)benzamide] | > 3160 | > 1580 | 10 | 126 |

Now from value to compound:

| Ki [1] [nM] | Kb [2] [nM] | Ki [3] [nM] | Kb [4] [nM] | Structure (SMILES) |
| --- | --- | --- | --- | --- |
| 200 | > 501 | 1.58 | 1.58 | COc1cccc(-n2nccn2)c1C(=O)N[C@H]1CCC[C@@H]1COc1ccc(F)cc1 [Example 5, N-[(1S,2S)-2-[(4-fluorophenoxy)methyl]cyclopentyl]-2-methoxy-6-(triazol-2-yl)benzamide] |
| 2000 | > 2510 | 20 | 50.1 | COc1cccc(-c2ncccn2)c1C(=O)N[C@H]1CCC[C@@H]1COc1ccc(F)cn1 [Example 32, N-[(1S,2S)-2-[(5-fluoro-2-pyridyl)oxymethyl]cyclopentyl]-2-methoxy-6-pyrimidin-2-yl-benzamide] |
| > 3160 | > 794 | 12.6 | 251 | O=C(N[C@H]1CCC[C@@H]1COc1ccc(F)cc1F)c1ncccc1-c1ncccn1 [Example 26, N-[(1S,2S)-2-[(2,4-difluorophenoxy)methyl]cyclopentyl]-3-pyrimidin-2-yl-pyridine-2-carboxamide] |
| > 3160 | > 631 | 7.94 | 79.4 | O=C(N[C@H]1CCC[C@@H]1COc1ccc(F)cc1)c1ncccc1-c1ncccn1 [Example 25, N-[(1S,2S)-2-[(4-fluorophenoxy)methyl]cyclopentyl]-3-pyrimidin-2-yl-pyridine-2-carboxamide] |
| > 1260 | > 2510 | 25.1 | 100 | O=C(N[C@H]1CCC[C@@H]1COc1ccc(F)c(F)c1)c1ncccc1-c1ncccn1 [Example 28, N-[(1S,2S)-2-[(3,4-difluorophenoxy)methyl]cyclopentyl]-3-pyrimidin-2-yl-pyridine-2-carboxamide] |
| > 1260 | > 631 | 7.94 | 25.1 | COc1nccc(-c2ncccn2)c1C(=O)N[C@H]1CCC[C@@H]1COc1ccc(F)cc1 [Example 30, N-[(1S,2S)-2-[(4-fluorophenoxy)methyl]cyclopentyl]-2-methoxy-4-pyrimidin-2-yl-pyridine-3-carboxamide] |
| > 1260 | > 2510 | 12.6 | 158 | O=C(N[C@H]1CCC[C@@H]1COc1ccc(F)cc1)c1c(OC(F)F)cccc1-c1ncccn1 [Example 15, 2-(difluoromethoxy)-N-[(1S,2S)-2-[(4-fluorophenoxy)methyl]cyclopentyl]-6-pyrimidin-2-yl-benzamide] |
